Reference: US11919854B2, “P2RX7 modulators in therapy” (Centre national de la recherche scientifique, priority 2018, dated 2024)

Assays:
B16-F10 cells = assay: In vivo assay for immunogenic cell death (ICD), B16-F10; design: species or system mice; details: B16-F10 exposed to 3 mM ATP and 50 μM HEI3090, contralateral challenge
Protocol: a-b. In vivo assay for the evaluation of HEI3090 as an inducer of immunogenic cell death.
To induce B16-F10 death, cells were exposed to 3 mM ATP and 50 μM HEI3090 and 1.105 dying cells, or PBS as control, were injected sc in the right flank (n=4). 7 days later, 0.5.105 live B16-F10 cells were injected s.c. in the contralateral flank. (a). Curves shown mean of tumor growth in the contralateral site (b).
The inventors performed dedicated experiment to test the hypothesis that HEI3090 may induce immunogenic cell death (ICD).

human P2RX7 = target: T1, human P2RX7 (Homo sapiens, UniProt Q99572); assay: Large pore opening with increasing BzATP in human P2RX7 expressing cells; type: cell-based; details: increasing concentration of BzATP with or without HEI3090
T1 construct: expressed in transfected cells; host or cells: HEK cells
T1 sequence (Q99572 1-595): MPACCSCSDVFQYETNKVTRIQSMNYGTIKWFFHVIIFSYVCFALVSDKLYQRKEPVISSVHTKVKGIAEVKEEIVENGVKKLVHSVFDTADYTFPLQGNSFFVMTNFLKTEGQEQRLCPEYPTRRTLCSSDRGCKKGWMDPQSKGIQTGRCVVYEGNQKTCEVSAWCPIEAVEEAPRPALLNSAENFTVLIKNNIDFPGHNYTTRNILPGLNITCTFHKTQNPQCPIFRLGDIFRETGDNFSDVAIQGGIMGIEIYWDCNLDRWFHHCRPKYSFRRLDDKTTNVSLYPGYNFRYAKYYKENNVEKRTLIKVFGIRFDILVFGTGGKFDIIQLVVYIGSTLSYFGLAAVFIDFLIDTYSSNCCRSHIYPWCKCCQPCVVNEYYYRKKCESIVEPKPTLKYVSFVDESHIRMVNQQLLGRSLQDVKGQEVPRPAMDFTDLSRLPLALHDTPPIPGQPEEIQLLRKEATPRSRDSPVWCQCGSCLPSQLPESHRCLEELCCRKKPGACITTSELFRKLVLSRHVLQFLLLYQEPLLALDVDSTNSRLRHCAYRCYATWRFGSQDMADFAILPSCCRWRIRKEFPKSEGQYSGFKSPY
Protocol: A. Splenocytes from control or p2rx7^exon2 KO mice were isolated and treated with HEI3090 (50 μM) in presence of absence of BzATP (500 μM). B. Large pore opening induced by increasing concentration of BzATP in presence or absence of HEI3090 in human P2RX7 expressing cells.
Indeed, with the same BzATP concentration, more cells are positive for Topro3 staining.

mouse P2RX7 = target: T2, mouse P2RX7 (Mus musculus, UniProt Q9Z1M0); assay: Calcium influx and large cation permeation by FACS, 15 min, HEK cells with mouse P2RX7, increasing doses of BzATP; type: cell-based; details: 15 min stimulation
T2 construct: expressed in transfected cells; host or cells: HEK cells
T2 sequence (Q9Z1M0 1-595): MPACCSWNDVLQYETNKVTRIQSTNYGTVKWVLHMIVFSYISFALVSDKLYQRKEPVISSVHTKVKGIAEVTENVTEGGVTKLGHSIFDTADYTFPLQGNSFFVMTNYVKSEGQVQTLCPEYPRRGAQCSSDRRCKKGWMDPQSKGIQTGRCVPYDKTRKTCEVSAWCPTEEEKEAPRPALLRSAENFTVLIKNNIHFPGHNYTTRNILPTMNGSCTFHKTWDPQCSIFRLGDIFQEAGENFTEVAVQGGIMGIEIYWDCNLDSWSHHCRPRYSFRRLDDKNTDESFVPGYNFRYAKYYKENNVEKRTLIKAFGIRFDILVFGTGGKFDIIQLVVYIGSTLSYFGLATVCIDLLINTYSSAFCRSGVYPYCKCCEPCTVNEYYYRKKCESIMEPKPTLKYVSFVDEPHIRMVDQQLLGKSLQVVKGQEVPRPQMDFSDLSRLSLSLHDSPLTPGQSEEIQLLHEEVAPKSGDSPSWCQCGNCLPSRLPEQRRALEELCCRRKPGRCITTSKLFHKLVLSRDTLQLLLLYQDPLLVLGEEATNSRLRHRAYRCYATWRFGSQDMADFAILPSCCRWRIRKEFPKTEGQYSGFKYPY
Protocol: Calcium influx (Fluo-AM positive cells) and large cation permeation (Topro3 positive cells) were assayed by FACS 15 min after stimulation of HEK cells transfected with the mouse P2RX7 treated with increasing doses of BzATP.
Complementary analyses were also performed to document the biological activity of HEI3090, the more soluble version of HEI2328, on both HEK cells expressing mouse P2RX7 (mP2RX7) (FIG. 14) or human P2RX7 (hP2RX7) (FIG. 15). BzATP or ATP stimulate channel activity, an event that occurred in the first minutes of P2RX7 stimulation. […] The same positive effect was observed on cells expressing human P2RX7 (FIG. 15).

## O=C(NCc1ccc(Cl)cc1Cl)[C@@H]1CCC(=O)N1C(=O)Nc1ccc(Cl)nc1 [HEI3090, (S)—N^1-(6-Chloropyridin-3-yl)-N^2-(2,4-dichlorobenzyl)-5-oxopyrrolidine-1,2-dicarboxamide]
B16-F10 cells
  induction of immunogenic cell death (ICD): does not promote ICD
Human P2RX7
  large pore opening (Topro3 staining): enhanced large pore opening in presence of BzATP
Mouse P2RX7; increasing doses of BzATP, HEI3090 250 nM
  decrease of the EC50 (BzATP) in the presence of HEI3090: 22%
Mouse P2RX7; low dose of HEI3090 (250 nM)
  shift of the EC50 for BzATP: shift to the left of the EC50 for BzATP
